According to US20250092056A1, “URACIL DERIVATIVES HAVING VIRUS REPLICATION INHIBITORY ACTIVITY AND PHARMACEUTICAL COMPOSITION COMPRISING THE SAME” (Shionogi & Co., Ltd., priority 2022, published 2025):
pEC50, pIC50: −log10 of the molar value. “And” between values parts separate entries of the source, which are not always exact repeats. Equal entries are not always repeated. Where two headings read alike, the source gives them in different places.

What was measured:
[1] = target: Recombinant SARS-CoV-2 3CL Protease (Severe acute respiratory syndrome coronavirus 2 (2019-nCoV) (SARS-CoV-2), UniProt P0DTD1); test: biochemical; assay type: biochemical; conditions: 50% SARS-CoV-2 3CL protease inhibitory concentration; read-out: IC50
SARS-CoV-2 = test: Cytopathic effect (CPE) suppression effect confirmation test using HEK293T/ACE2-TMPRSS2 cells; assay type: cell-based; conditions: Severe acute respiratory syndrome coronavirus 2, HEK-293T
[2] = 72 h, HEK293T/ACE2-TMPRSS2 cells, CPE suppression, CellTiter-Glo 2.0 after 3 days culture, read-out: EC50 (50% SARS-CoV-2 infected cell death inhibitory concentration), class
[3] = 72 h, read-out: EC50 (50% SARS-CoV-2 infected cell death inhibitory concentration), class, HEK293T/ACE2-TMPRSS2 cells, CPE suppression, CellTiter-Glo 2.0 after 3 days culture
[4] = 72 h, read-out: EC50 (50% SARS-CoV-2 infected cell death inhibitory concentration), HEK293T/ACE2-TMPRSS2 cells, CPE suppression, CellTiter-Glo 2.0 after 3 days culture
[5] = 50% SARS-CoV-2 infected cell death inhibitory concentration, HEK293T/ACE2-TMPRSS2 cells, read-out: EC50

Compound	pIC50 [1]	pEC50 (SARS-CoV-2; [2])	pEC50 (SARS-CoV-2; [3])	pEC50 (SARS-CoV-2; [4])	pEC50 (SARS-CoV-2; [5])
Cc1cc(-n2c(=O)c(-c3ccc(F)c(Cl)c3)c(N3CCC(C)(C)CC3)n(CC#N)c2=O)cc(=O)[nH]1 [Compound I-170]	7.00 to 8.00	> 7.00	–	–	–
N#CCn1c(N2CC3(CCOC3)C2)c(-c2ccccc2)c(=O)n(-c2cncc(Cl)c2)c1=O [Compound I-171]	> 8.00	–	> 7.00	–	–
Cc1cc(-n2c(=O)c(-c3ccc(F)c(Cl)c3)c(N3C[C@H]4CCCC[C@H]4C3)n(CC#N)c2=O)cc(=O)[nH]1 [Compound I-172]	> 8.00	–	> 7.00	–	–
Cc1cc(-n2c(=O)c(-c3ccc(F)c(Cl)c3)c(-c3cc4ccccc4s3)n(CC#N)c2=O)cc(=O)[nH]1 [Compound I-173]	> 8.00	–	> 7.00	–	–
N#CCn1c(N2CCC(F)(F)CC2)c(-c2cccc(Cl)c2)c(=O)n(-c2cncc(Cl)c2)c1=O [Compound I-174]	> 8.00	–	> 7.00	–	–
CC1(C)CN(c2c(-c3cccc(C#N)c3)c(=O)n(-c3cncc(Cl)c3)c(=O)n2CC#N)C1 [Compound I-175]	> 8.00	–	> 7.00	–	–
CC1(C)CCN(c2c(-c3cccc(C#N)c3)c(=O)n(-c3cncc(Cl)c3)c(=O)n2CC#N)CC1 [Compound I-176]	> 8.00	–	> 7.00	–	–
N#CCn1c(N2CC3(CCOC3)C2)c(-c2cccc(C(F)F)c2)c(=O)n(-c2cncc(Cl)c2)c1=O [Compound I-177]	> 8.00	–	> 7.00	–	–
CC1(C)[C@@H]2CN(c3c(-c4cccc(Cl)c4)c(=O)n(-c4cncc(Cl)c4)c(=O)n3CC#N)C[C@@H]21 [Compound I-178]	> 8.00	–	> 7.00	–	–
N#CCn1c(N2CC3(CCOC3)C2)c(-c2cc(Cl)cc(C#N)c2)c(=O)n(-c2cncc(Cl)c2)c1=O [Compound I-179]	> 8.00	–	> 7.00	–	–
N#CCn1c(N2CC3(CCOC3)C2)c(-c2cc(F)cc(Cl)c2)c(=O)n(-c2cncc(Cl)c2)c1=O [Compound I-180]	> 8.00	–	> 7.00	–	–
N#CCn1c(N2CC3(CCOC3)C2)c(-c2ccc(F)c(Cl)c2)c(=O)n(-c2cncc(Cl)c2)c1=O [Compound I-181]	> 8.00	–	> 7.00	–	–
N#CCn1c(N2CC3(CCOC3)C2)c(-c2cccc(Cl)c2)c(=O)n(-c2cncc(Cl)c2)c1=O [Compound I-182]	9.40	–	–	8.77	–
Cc1cc(-n2c(=O)c(-c3ccc(F)c(Cl)c3)c(-c3ccc(C4CC4)cc3)n(CC#N)c2=O)cc(=O)[nH]1 [Compound I-183]	7.00 to 8.00 and > 8.00	–	> 7.00	–	–
Cc1cc(-n2c(=O)c(-c3ccc(F)c(Cl)c3)c(C#CC3CC3)n(CC#N)c2=O)cc(=O)[nH]1 [Compound I-184]	< 7.00	–	6.00 to 7.00	–	–
N#CCc1c(N2Cc3ccccc3C2)n(Cc2cc(F)c(F)c(F)c2)c(=O)n(-c2cncc(Cl)c2)c1=O [Compound I-185]	7.57	–	–	7.39	–
Cc1cc(-n2c(=O)c(-c3ccc(F)c(Cl)c3)c(N3CC4(CCOC4)C3)n(CC#N)c2=O)cnn1 [Compound I-188]	7.00 to 8.00	6.00 to 7.00	–	–	–
Cc1cc(-n2c(=O)c(-c3ccc(F)c(Cl)c3)c(-c3nc4ccccc4s3)n(CC#N)c2=O)cc(=O)[nH]1 [Compound I-189]	> 8.00	–	> 7.00	–	–
N#CCn1c(N2CC3(CCOC3)C2)c(-c2ccc(F)c(Cl)c2)c(=O)n(-c2cncc(C(F)(F)F)n2)c1=O [Compound I-190]	> 8.00	–	> 7.00	–	–
N#CCn1c(N2CC3(CCOC3)C2)c(-c2ccc(F)c(Cl)c2)c(=O)n(-c2cncc(Cl)n2)c1=O [Compound I-191]	> 8.00	–	> 7.00	–	–
Cc1cncc(-n2c(=O)c(-c3ccc(F)c(Cl)c3)c(N3CC4(CCOC4)C3)n(CC#N)c2=O)n1 [Compound I-192]	> 8.00	–	> 7.00	–	–
Cc1cncc(-n2c(=O)c(-c3ccc(F)c(Cl)c3)c(N3CC4(CCCO4)C3)n(CC#N)c2=O)n1 [Compound I-195]	> 8.00	–	> 7.00	–	–
Cc1cncc(-n2c(=O)c(-c3ccc(F)c(Cl)c3)c(N3CC(C)(C)C3)n(CC#N)c2=O)n1 [Compound I-196]	> 8.00	–	> 7.00	–	–
Cc1cncc(-n2c(=O)c(-c3ccc(F)c(Cl)c3)c(N3CCC(F)(F)CC3)n(CC#N)c2=O)n1 [Compound I-197]	> 8.00	–	> 7.00	–	–
Cc1cncc(-n2c(=O)c(-c3ccc(F)c(Cl)c3)c(N3CC4(C3)CC(F)(F)C4)n(CC#N)c2=O)n1 [Compound I-198]	> 8.00	–	> 7.00	–	–
Cc1cncc(-n2c(=O)c(-c3ccc(F)c(Cl)c3)c(N3CCC(C(F)(F)F)CC3)n(CC#N)c2=O)n1 [Compound I-199]	> 8.00	–	> 7.00	–	–

Compound	pIC50 [1]	pEC50 (SARS-CoV-2; [2])	pEC50 (SARS-CoV-2; [3])	pEC50 (SARS-CoV-2; [4])	pEC50 (SARS-CoV-2; [5])
Cc1cc(-n2c(=O)c(-c3cc(Cl)cc(C(F)(F)F)c3)c(N3CCC(C(F)(F)F)CC3)n(CC#N)c2=O)cc(=O)[nH]1 [Compound I-200]	7.00 to 8.00	> 7.00	–	–	–
Cc1cc(-n2c(=O)c(-c3cc(Cl)cc(C(F)(F)F)c3)c(N3CC4(C3)CC(F)(F)C4)n(CC#N)c2=O)cc(=O)[nH]1 [Compound I-201]	> 8.00	–	6.00 to 7.00	–	–
COc1ccc(Oc2c(Cc3cc(F)c(F)c(F)c3)c(=O)n(-c3cncc(C)c3)c(=O)n2CC#N)cc1 [Compound I-202]	7.43	–	–	6.21	–
Cc1cncc(-n2c(=O)c(Cc3cc(F)c(F)c(F)c3)c(N3CCCC3)n(CC#N)c2=O)c1 [Compound I-203]	7.00 to 8.00	> 7.00	–	–	–
Cc1cncc(-n2c(=O)c(Cc3cc(F)c(F)c(F)c3)c(N3Cc4cn[nH]c4C3)n(CC#N)c2=O)c1 [Compound I-204]	> 8.00	–	> 7.00	–	–
Cc1cncc(-n2c(=O)c(Cc3cc(F)c(F)c(F)c3)c(N3Cc4ccccc4C3)n(CC#N)c2=O)c1 [Compound I-205]	9.12	–	–	8.30	–
N#CCn1c(N2CC3(C2)CC(F)(F)C3)c(-c2ccc(F)c(Cl)c2)c(=O)n(-c2cncc(C#N)n2)c1=O [Compound I-206]	> 8.00	–	–	–	> 7.00
N#CCn1c(N2CC3(C2)CC(F)(F)C3)c(-c2ccc(F)c(Cl)c2)c(=O)n(-c2cncc(C(F)(F)F)n2)c1=O [Compound I-207]	> 8.00	–	–	–	> 7.00
N#CCn1c(N2CC3(C2)CC(F)(F)C3)c(-c2ccc(F)c(Cl)c2)c(=O)n(-c2cncc(C(F)F)n2)c1=O [Compound I-208]	8.74	–	–	8.15	–
N#CCc1cncc(-n2c(=O)c(-c3ccc(F)c(Cl)c3)c(N3CC4(C3)CC(F)(F)C4)n(CC#N)c2=O)n1 [Compound I-209]	> 8.00	–	–	–	> 7.00
N#CCn1c(N2CC3(C2)CC(F)(F)C3)c(-c2ccc(F)c(Cl)c2)c(=O)n(CC#N)c1=O [Compound I-210]	< 7.00	–	–	–	6.00 to 7.00
Cc1cncc(-n2c(=O)c(-c3ccc(F)c(Cl)c3)c(C3=CCOCC3)n(CC#N)c2=O)c1 [Compound I-211]	> 8.00	–	–	–	> 7.00
Cc1cncc(-n2c(=O)c(-c3ccc(F)c(Cl)c3)c(/C=C/c3ccc(C(F)(F)F)cc3)n(CC#N)c2=O)c1 [Compound I-212]	7.00 to 8.00	–	–	–	6.00 to 7.00
Cc1cncc(-n2c(=O)c(-c3cc(F)c(F)c(F)c3)c(CCC(C)(C)O)n(CC#N)c2=O)c1 [Compound I-213]	> 8.00	–	–	–	> 7.00
N#CCn1c(N2CC3(C2)CC(F)(F)C3)c(-c2ccc(F)c(Cl)c2)c(=O)n(-c2cc(Cl)cnn2)c1=O [Compound I-214]	> 8.00	–	–	–	> 7.00
COc1cnnc(-n2c(=O)c(-c3ccc(F)c(Cl)c3)c(N3CC4(C3)CC(F)(F)C4)n(CC#N)c2=O)c1 [Compound I-215]	> 8.00	–	–	–	> 7.00
N#CCn1c(N2CC3(C2)CC(F)(F)C3)c(-c2ccc(F)c(Cl)c2)c(=O)n(-c2cc(C#N)cnn2)c1=O [Compound I-216]	> 8.00	–	–	–	> 7.00
N#CCn1c(N2CC3(C2)CC(F)(F)C3)c(-c2ccc(F)c(Cl)c2)c(=O)n(-c2cc(OCC(F)F)cnn2)c1=O [Compound I-217]	> 8.00	–	–	–	> 7.00
CNc1cnnc(-n2c(=O)c(-c3ccc(F)c(Cl)c3)c(N3CC4(C3)CC(F)(F)C4)n(CC#N)c2=O)c1 [Compound I-218]	> 8.00	–	–	–	5.30 to 6.00
CN(C)c1cnnc(-n2c(=O)c(-c3ccc(F)c(Cl)c3)c(N3CC4(C3)CC(F)(F)C4)n(CC#N)c2=O)c1 [Compound I-219]	7.00 to 8.00	–	–	–	6.00 to 7.00
Cc1cc(-n2c(=O)c(-c3ccc(F)c(Cl)c3)c(-c3ccc(C(F)F)cc3)n(CC#N)c2=O)cc(=O)[nH]1 [Compound I-220]	> 8.00	–	–	–	6.00 to 7.00
Cc1cc(-n2c(=O)c(-c3ccc(F)c(Cl)c3)c(N3CC4(C3)CC(F)(F)C4)n(CC#N)c2=O)[nH]c(=O)c1 [Compound I-221]	< 7.00	–	–	–	5.30 to 6.00
CC(C)N1CCN(c2c(-c3ccc(F)c(Cl)c3)c(=O)n(-c3cncc(Cl)c3)c(=O)n2CC#N)CC1=O [Compound I-223]	> 8.00	–	–	–	> 7.00
CCN1CCN(c2c(-c3ccc(F)c(Cl)c3)c(=O)n(-c3cncc(C)c3)c(=O)n2CC#N)CC1=O [Compound I-224]	> 8.00	–	–	–	> 7.00
Cc1cncc(-n2c(=O)c(-c3ccc(F)c(Cl)c3)c(N3C[C@@H]4C[C@H]3CO4)n(CC#N)c2=O)c1 [Compound I-225]	> 8.00	–	–	–	> 7.00
Cc1cncc(-n2c(=O)c(-c3ccc(F)c(Cl)c3)c(N3C[C@H]4C[C@@H]3CO4)n(CC#N)c2=O)c1 [Compound I-226]	> 8.00	–	–	–	> 7.00
